Laboratory results: ChEMBL document CHEMBL1201862, “PubChem BioAssay data set” (2004)
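The compound was tested at five concentrations on cells cultured in 96-well plates, with a 48-hour exposure period. GI50: concentration for 50% inhibition of growth.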 Activity calls are given as the source filed them. No stated cut-off is given here; in the data, active = GI50 up to about 1.1 µM and inactive = higher.

Assays:
Assay in all cases: NCI tumour cell line growth inhibition, 48 h
786-0 = system: 786-0
COLO 205 = system: COLO 205
HCC 2998 = system: HCC 2998
HOP-62 = system: HOP-62
HOP-92 = system: HOP-92
Hs-578T = system: Hs-578T
K562 = system: K562
KM12 = system: KM12
LOX IMVI = system: LOX IMVI
MDA-N = system: MDA-N
NCI-H23 = system: NCI-H23
OVCAR-3 = system: OVCAR-3
RPMI-8226 = system: RPMI-8226
SF-295 = system: SF-295
SF-539 = system: SF-539
SK-MEL-2 = system: SK-MEL-2
SN12C = system: SN12C
TK-10 = system: TK-10
RXF 393 = system: RXF 393

Compound | GI50 (786-0) | GI50 (COLO 205) | GI50 (HCC 2998) | GI50 (HOP-62) | GI50 (HOP-92) | GI50 (Hs-578T) | GI50 (K562) | GI50 (KM12) | GI50 (LOX IMVI) | GI50 (MDA-N) | GI50 (NCI-H23) | GI50 (OVCAR-3) | GI50 (RPMI-8226) | GI50 (SF-295) | GI50 (SF-539) | GI50 (SK-MEL-2) | GI50 (SN12C) | GI50 (TK-10) | GI50 (RXF 393)
COc1ccc(-c2nnc(CCCCCCCCc3nnc(-c4ccc(OC)cc4)n3N)n2N)cc1 | > 31.6 µM (inactive) | > 100 µM (inactive) | > 100 µM (inactive) | 28.2 µM (inactive) | > 39.3 µM (inactive) | > 59 µM (inactive) | > 100 µM (inactive) | > 100 µM (inactive) | > 100 µM (inactive) | > 100 µM (inactive) | > 100 µM (inactive) | > 100 µM (inactive) | > 100 µM (inactive) | > 59.4 µM (inactive) | > 76.2 µM (inactive) | > 81.5 µM (inactive) | > 100 µM (inactive) | > 60 µM (inactive) | –
CN(C)CCNC(=O)c1cccc2c1Oc1c(cccc1[N+](=O)[O-])O2 | 0.564 µM (active) | 1.87 µM (inactive) | 1.04 µM (active) | 0.472 µM (active) | – | 1.94 µM (inactive) | 1.45 µM (inactive) | 1.26 µM (inactive) | 0.908 µM (active) | 2.78 µM (inactive) | 1.44 µM (inactive) | 2.69 µM (inactive) | 0.583 µM (active) | 0.548 µM (active) | 1.39 µM (inactive) | 0.29 µM (active) | 0.74 µM (active) | 1.69 µM (inactive) | 2.08 µM (inactive)
COC(=O)/C=C\n1c(C)cc(=O)[nH]c1=O | > 100 µM (inactive) | > 100 µM (inactive) | > 100 µM (inactive) | > 100 µM (inactive) | > 100 µM (inactive) | > 100 µM (inactive) | > 100 µM (inactive) | > 100 µM (inactive) | – | > 100 µM (inactive) | > 100 µM (inactive) | > 100 µM (inactive) | > 100 µM (inactive) | > 100 µM (inactive) | > 100 µM (inactive) | > 100 µM (inactive) | > 100 µM (inactive) | > 100 µM (inactive) | > 100 µM (inactive)
COCc1cc2c(cc1/C=C/[N+](=O)[O-])OCO2 | 16.9 µM (inactive) | 18.2 µM (inactive) | 17.5 µM (inactive) | 20.7 µM (inactive) | 18.8 µM (inactive) | 19.5 µM (inactive) | > 100 µM (inactive) | 20.8 µM (inactive) | 27.5 µM (inactive) | 17.7 µM (inactive) | 27.4 µM (inactive) | 19.4 µM (inactive) | 76 µM (inactive) | 21.6 µM (inactive) | 20.7 µM (inactive) | – | 18.5 µM (inactive) | 16.9 µM (inactive) | 18 µM (inactive)
O=C1OC(C2(O)OC(=O)c3ccccc32)c2ccccc21 (centres undefined) | > 100 µM (inactive) | > 100 µM (inactive) | > 100 µM (inactive) | > 100 µM (inactive) | > 100 µM (inactive) | > 100 µM (inactive) | – | > 100 µM (inactive) | > 100 µM (inactive) | > 100 µM (inactive) | > 100 µM (inactive) | > 100 µM (inactive) | > 100 µM (inactive) | > 100 µM (inactive) | > 100 µM (inactive) | > 100 µM (inactive) | > 100 µM (inactive) | > 100 µM (inactive) | > 100 µM (inactive)
CCc1ccccc1NC(=O)C(=O)CC(=O)c1sc(Nc2ccccc2Cl)nc1C | 27.7 µM (inactive) | 22.2 µM (inactive) | 30.1 µM (inactive) | 31.6 µM (inactive) | – | 46.5 µM (inactive) | 29.4 µM (inactive) | 29.6 µM (inactive) | 19.7 µM (inactive) | 28.8 µM (inactive) | 30.3 µM (inactive) | 19.5 µM (inactive) | 19.2 µM (inactive) | 28.2 µM (inactive) | 24.4 µM (inactive) | 24.4 µM (inactive) | 42.7 µM (inactive) | 59.6 µM (inactive) | 24.9 µM (inactive)
O=C(NCCCN(CCCCN(CCCNC(=O)C(F)(F)F)Cc1ccccc1)Cc1ccccc1)C(F)(F)F | 12.6 µM (inactive) | 10.7 µM (inactive) | 4.24 µM (inactive) | – | 10.5 µM (inactive) | 16.6 µM (inactive) | 13.7 µM (inactive) | 13.2 µM (inactive) | 8.43 µM (inactive) | 15.7 µM (inactive) | 15.5 µM (inactive) | – | 16 µM (inactive) | 16.5 µM (inactive) | 13.5 µM (inactive) | – | 15.4 µM (inactive) | 23.3 µM (inactive) | 14.8 µM (inactive)
CCOC(=O)[C@@H]1CCN2CN(c3ccc(OC)cc3)N=C(c3ccccc3)[C@@]12c1ccccc1 | 18.6 µM (inactive) | 21.4 µM (inactive) | 26.2 µM (inactive) | 27.7 µM (inactive) | 12.6 µM (inactive) | 23.4 µM (inactive) | 66.8 µM (inactive) | 28.3 µM (inactive) | 14.1 µM (inactive) | 23.2 µM (inactive) | 24.1 µM (inactive) | – | 14.1 µM (inactive) | 25.8 µM (inactive) | – | 18.1 µM (inactive) | 16 µM (inactive) | 29.3 µM (inactive) | 14.7 µM (inactive)
O=C1N/C(=N/N=C/C(O)C(O)C(O)CO)N/C1=C\c1c[nH]c2ccccc12 (centres undefined) | > 100 µM (inactive) | > 100 µM (inactive) | > 100 µM (inactive) | > 100 µM (inactive) | > 100 µM (inactive) | > 100 µM (inactive) | > 100 µM (inactive) | > 100 µM (inactive) | > 100 µM (inactive) | > 100 µM (inactive) | > 100 µM (inactive) | > 100 µM (inactive) | > 100 µM (inactive) | > 100 µM (inactive) | > 100 µM (inactive) | – | > 100 µM (inactive) | > 100 µM (inactive) | > 100 µM (inactive)
N#Cc1c(N)c2c(c(-c3ccccc3)c1-c1ccccc1)C(=O)N(Nc1ccccc1)C2=O | 40.6 µM (inactive) | 20.7 µM (inactive) | 35.8 µM (inactive) | – | 48.1 µM (inactive) | 95.3 µM (inactive) | 33.6 µM (inactive) | 24.2 µM (inactive) | 16.9 µM (inactive) | 36.8 µM (inactive) | – | 21.7 µM (inactive) | 29.5 µM (inactive) | 41.5 µM (inactive) | 35.8 µM (inactive) | 30.1 µM (inactive) | 30.7 µM (inactive) | 42.1 µM (inactive) | 19.3 µM (inactive)
CCCCCCCCCCC(O)C1CCC(C2CCC(C(O)CCCCC(O)CCCCCC(O)CC3=CC(C)OC3=O)O2)O1 (centres undefined) | > 25 µM (inactive) | > 25 µM (inactive) | > 25 µM (inactive) | > 25 µM (inactive) | > 25 µM (inactive) | 4.75 µM (inactive) | > 6.9 µM (inactive) | 3.78 µM (inactive) | 2.69 µM (inactive) | 3.86 µM (inactive) | – | > 25 µM (inactive) | > 16.4 µM (inactive) | 19.9 µM (inactive) | > 25 µM (inactive) | > 25 µM (inactive) | 9.48 µM (inactive) | > 25 µM (inactive) | > 17.2 µM (inactive)
